Test results taken from US20240246968A1, “SMALL MOLECULE INHIBITORS OF KRAS G12C MUTANT” (Merck Sharp & Dohme LLC, priority 2021, published 2024).

Tests used:
[1] = target: T1, interaction between recombinant K-Ras4B G12C mutant protein and cRAF RAS-binding domain (cRAF-RBD) (Homo sapiens, UniProt P01116, G12C); experiment: Inhibitory activity on interaction between KRAS G12C and cRAF (Alpha technology); format: biochemical; settings: GMPPNP-bound KRAS G12C incubated with compound at 25° C. for 1 hour, then cRAF-RBD; Alpha signal
T1 construct: made in house; host or cells: E. coli
How it was run: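 GMPPNP-loaded His-tagged KRAS G12C (aa 1-169, E. coli) preincubated with compound 1 h at 25° C in Tris pH 7.5, 100 mM NaCl, 1 mM MgCl2, TCEP, 0.1% Tween 20; cRAF-RBD (aa 50-132) added, 1.5 h RT, Alpha signal read. DMSO = 0%, GDP-bound KRAS = 100% inhibition; IC50 from dose titration fit.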

[2] = system: MIA PaCa-2 cells; experiment: Growth inhibition activity on KRAS-G12C mutant cell line (MIA PaCa-2), CellTiter-Glo 3D; format: cell-based, human; settings: MIA PaCa-2, 3-day culture with compound
How it was run: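 Cells in RPMI1640 with 10% FBS were seeded in U-bottom plates and cultured 1 day at 37 °C, 5% CO2, then exposed to compound (0.2% DMSO final) for 3 more days. Viability read by CellTiter-Glo 3D luminescence; IC50 from growth inhibition relative to untreated wells.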

[3] = target: Gppcp-bound recombinant K-Ras4B G12C mutant protein (amino acids 1-169, C51S/C80L/C118S) (Homo sapiens, UniProt P01116, C118S/C51S/C80L/G12C); experiment: KRASG12C binding assay (LC-MS, compound binding rate); settings: test compound final concentration 0.5 μM, 25° C., 1 hour
How it was run: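 Gppcp-bound K-Ras4B G12C (1-169; C51S/C80L/C118S), 50 nM in TBS with 0.1 mM TCEP, 0.25 mM MgCl2, 50 μM Gppcp, exposed to compound at 0.5 μM final for 1 h at 25 °C. Quenched with formic acid and analysed by intact-protein ESI LC-MS. Binding rate is the mono-adduct signal over total KRAS signal; graded A (≥80%) to E (<20%).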

| SMILES | IC50 [1] | IC50 [2] | IC50 ([2]; Homo sapiens, MIA PaCa-2, 72 h) | binding rate [3] |
| --- | --- | --- | --- | --- |
| Cc1nc2c(Cl)c(-c3cccn4c(C(=O)c5cc(F)c(NC(=O)/C=C/CNC6CCOCC6)c(F)c5)ccc34)c(C(F)(F)F)cc2n1C (single isomer, unassigned) [Example 57-1, (E)-N-(4-(8-(4-chloro-1,2-dimethyl-6-(trifluoromethyl)-1H-benzo[d]imidazol-5-yl)indolizine-3-carbonyl)-2,6-difluorophenyl)-4-((tetrahydro-2H-pyran-4-yl)amino)but-2-enamide] | 43 nM | 20 nM | – | A (A binding rate of 80% or more is rated “A”) |
| Cn1cnc2c(Cl)c(-c3cccn4c(C(=O)c5cc(F)c(NC(=O)/C=C/CNC(C)(C)C)c(F)c5)ccc34)c(Cl)cc21 (single isomer, unassigned) [Example 20-2, (E)-4-(tert-butylamino)-N-(4-(8-(4,6-dichloro-1-methyl-1H-benzo[d]imidazol-5-yl)indolizine-3-carbonyl)-2,6-difluorophenyl)but-2-enamide] | 33 nM | 59 nM | – | A (A binding rate of 80% or more is rated “A”) |
| COc1cc(N2CCCC2=O)cc(Cl)c1-c1cccn2c(C(=O)c3cc(F)c(NC(=O)/C=C/CN[C@H]4CC[C@H](OC)CC4)c(F)c3)ccc12 (single isomer, unassigned) [Example 30-1, (E)-N-(4-(8-(2-chloro-6-methoxy-4-(2-oxopyrrolidin-1-yl)phenyl)indolizine-3-carbonyl)-2,6-difluorophenyl)-4-(((1r,4r)-4-methoxycyclohexyl)amino)but-2-enamide] | 130 nM | 360 nM | – | A (A binding rate of 80% or more is rated “A”) |
| CO[C@H](C)c1nc2c(Cl)c(-c3cccn4c(C(=O)c5cc(F)c(NC(=O)/C=C/CNC(C)(C)C)c(F)c5)ccc34)c(C)cc2n1C (single isomer, unassigned) [Example 49] | 19 nM | 49 nM | – | A (A binding rate of 80% or more is rated “A”) |
| CO[C@H]1CC[C@H](NC/C=C/C(=O)Nc2c(F)cc(C(=O)c3ccc4c(-c5c(C)cc6c(ncn6C)c5Cl)cccn34)cc2F)CC1 (single isomer, unassigned) [Example 12-1, (E)-N-(4-(8-(4-chloro-1,6-dimethyl-1H-benzo[d]imidazol-5-yl)indolizine-3-carbonyl)-2,6-difluorophenyl)-4-(((1r,4r)-4-methoxycyclohexyl)amino)but-2-enamide] | 29 nM | 79 nM | – | A (A binding rate of 80% or more is rated “A”) |
| CCc1cc2c(nc(C)n2C)c(Cl)c1-c1cccn2c(C(=O)c3cc(F)c(NC(=O)/C=C/CNC(C)(C)C)c(F)c3)ccc12 [Example 16, (E)-4-(tert-butylamino)-N-(4-(8-(4-chloro-6-ethyl-1,2-dimethyl-1H-benzo[d]imidazol-5-yl)indolizine-3-carbonyl)-2,6-difluorophenyl)but-2-enamide] | 64 nM | – | 48 nM | A (A binding rate of 80% or more is rated “A”) |
| Cc1nc2c(-c3cc4nc(C)n(C)c4cc3C(F)(F)F)cccn2c1C(=O)c1cc(F)c(NC(=O)/C=C/CNC(C)(C)C)c(F)c1 [Example 52, (E)-4-(tert-butylamino)-N-(4-(8-(1,2-dimethyl-6-(trifluoromethyl)-1H-benzo[d]imidazol-5-yl)-2-methylimidazo[1,2-a]pyridine-3-carbonyl)-2,6-difluorophenyl)but-2-enamide] | 75 nM | – | 190 nM | A (A binding rate of 80% or more is rated “A”) |
| COc1cc2c(nc(C)n2C)c(F)c1-c1cccn2c(C(=O)c3cc(F)c(NC(=O)/C=C/CNC(C)(C)C)c(F)c3)ccc12 [Example 46, (E)-4-(tert-butylamino)-N-(2,6-difluoro-4-(8-(4-fluoro-6-methoxy-1,2-dimethyl-1H-benzo[d]imidazol-5-yl)indolizine-3-carbonyl)phenyl)but-2-enamide] | 30 nM | – | 24 nM | A (A binding rate of 80% or more is rated “A”) |
| Cc1cc2c(ncn2C)c(Cl)c1-c1cccn2c(C(=O)c3cc(F)c(NC(=O)/C=C/CNC4CCOCC4)c(F)c3)ccc12 (single isomer, unassigned) [Example 27-2, (E)-N-(4-(8-(4-chloro-1,6-dimethyl-1H-benzo[d]imidazol-5-yl)indolizine-3-carbonyl)-2,6-difluorophenyl)-4-((tetrahydro-2H-pyran-4-yl)amino)but-2-enamide] | 120 nM | 530 nM | – | A (A binding rate of 80% or more is rated “A”) |

Continued, in another order:

| IC50 [1] | IC50 [2] | IC50 ([2]; Homo sapiens, MIA PaCa-2, 72 h) | SMILES | binding rate [3] |
| --- | --- | --- | --- | --- |
| 35 nM | – | 69 nM | CO[C@H]1CC[C@H](NC/C=C/C(=O)Nc2c(F)cc(C(=O)c3ccc4c(-c5c(C)cc6c(nc(CO)n6C)c5Cl)cccn34)cc2F)CC1 [Example 58] | A (A binding rate of 80% or more is rated “A”) |
| 22 nM | – | 100 nM | CCc1cc(C(=O)c2cc(F)c(NC(=O)/C=C/CN[C@H]3CC[C@H](OC)CC3)c(F)c2)n2cccc(-c3c(C)cc4c(nc(C)n4C)c3Cl)c12 [Example 89, (E)-N-(4-(8-(4-chloro-1,2,6-trimethyl-1H-benzo[d]imidazol-5-yl)-1-ethylindolizine-3-carbonyl)-2,6-difluorophenyl)-4-(((1r,4r)-4-methoxycyclohexyl)amino)but-2-enamide] | A (A binding rate of 80% or more is rated “A”) |
| 43 nM | 130 nM | – | CO[C@H]1CC[C@H](NC/C=C/C(=O)Nc2c(F)cc(C(=O)c3ccc4c(-c5c(C(C)C)cc6c(nc(C)n6C)c5Cl)cccn34)cc2F)CC1 (single isomer, unassigned) [Example 71-1, (E)-N-(4-(8-(4-chloro-6-isopropyl-1,2-dimethyl-1H-benzo[d]imidazol-5-yl)indolizine-3-carbonyl)-2,6-difluorophenyl)-4-(((1r,4r)-4-methoxycyclohexyl)amino)but-2-enamide] | A (A binding rate of 80% or more is rated “A”) |
| 29.8 nM | 23.1 nM | – | COc1c(-c2cccn3c(C(=O)c4cc(F)c(NC(=O)/C=C/CNC5(C)CC5)c(F)c4)cnc23)c(C(F)(F)F)cc2c1nc(C)n2C (single isomer, unassigned) [Example 105-1, (E)-N-(2,6-difluoro-4-(8-(4-methoxy-1,2-dimethyl-6-(trifluoromethyl)-1H-benzo[d]imidazol-5-yl)imidazo[1,2-a]pyridine-3-carbonyl)phenyl)-4-((1-methylcyclopropyl)amino)but-2-enamide] | A (A binding rate of 80% or more is rated “A”) |
| 44 nM | – | 320 nM | CCCc1cc(C(=O)c2cc(F)c(NC(=O)/C=C/CN[C@H]3CC[C@H](OC)CC3)c(F)c2)n2cccc(-c3c(C)cc4c(nc(C)n4C)c3Cl)c12 [Example 97, (E)-N-(4-(8-(4-chloro-1,2,6-trimethyl-1H-benzo[d]imidazol-5-yl)-1-propylindolizine-3-carbonyl)-2,6-difluorophenyl)-4-(((1r,4r)-4-methoxycyclohexyl)amino)but-2-enamide] | A (A binding rate of 80% or more is rated “A”) |
| 73 nM | – | 300 nM | Cc1cc2c(nc(CC(N)=O)n2C)c(Cl)c1-c1cccn2c(C(=O)c3cc(F)c(NC(=O)/C=C/CNC(C)(C)C)c(F)c3)ccc12 [Example 73, (E)-N-(4-(8-(2-(2-amino-2-oxoethyl)-4-chloro-1,6-dimethyl-1H-benzo[d]imidazol-5-yl)indolizine-3-carbonyl)-2,6-difluorophenyl)-4-(tert-butylamino)but-2-enamide] | A (A binding rate of 80% or more is rated “A”) |
| 18.9 nM | – | 1070 nM | COc1cc2c(c(F)c1-c1cccn3c(C(=O)c4cc(F)c(NC(=O)/C=C/CNC5(C)CC5)c(F)c4)ccc13)c(=O)ncn2C [Example 114] | A (A binding rate of 80% or more is rated “A”) |
| 16 nM | 16 nM | – | COc1c(-c2cccn3c(C(=O)c4cc(F)c(NC(=O)/C=C/CN[C@H]5CC[C@H](OC)CC5)c(F)c4)cnc23)c(C(F)(F)F)cc2c1nc(C)n2C (single isomer, unassigned) [Example 83-1, (E)-N-(2,6-difluoro-4-(8-(4-methoxy-1,2-dimethyl-6-(trifluoromethyl)-1H-benzo[d]imidazol-5-yl)imidazo[1,2-a]pyridine-3-carbonyl)phenyl)-4-(((1r,4r)-4-methoxycyclohexyl)amino)but-2-enamide] | A (A binding rate of 80% or more is rated “A”) |
